# Reference: patent US11518764B2, “Substituted heteroaryls as inhibitors of the BCL6 BTB domain protein-protein interaction” (Ontario Institute for Cancer Research (OICR), priority 2018, dated 2022)
# Read-outs that look alike come from different tables or passages of the source.
# Key:
# BCL6 BTB domain = BCL6 BTB domain (Homo sapiens (Human), UniProt P41182); test: Surface plasmon resonance (SPR) assay; format: binding; settings: BCL6 BTB domain captured on SA chip, single cycle kinetics
# Karpas422 cells = test: Tumor cell growth inhibition assay; format: cell-based
# Procedure, shortened: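 Karpas422 cells (2,000/well) in Alpha-MEM with 10% FBS dosed across 10 concentrations (top 5 uM) and grown six days at 37° C., 5% CO2. Viability read as ATPlite luminescence.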
# [1] = tested on: BCL6 reporter construct (3xBCL6-TK-Luc) in SuDHL4 cells; test: Cell-based luciferase assay
# Procedure, shortened: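 SuDHL4 cells stably carrying a 3×BCL6-site TK-promoter firefly luciferase reporter, seeded at 15,000 cells/well, were dosed over a 10-point range (top 10 uM) and grown two days at 37 °C, 5% CO2. Luminescence then read after adding neolite reagent at room temperature.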
# [2] = Homo sapiens, KARPAS-422, 144 h, read-out: Tumor Growth Inhibition in Karpas-422 (IC50, uM), Karpas422 cells, six days, ATPlite
# [3] = Homo sapiens, SU-DHL-4, 48 h, read-out: Luciferase-Assay EC50, uM), SuDHL4-3xBCL6-TK-Luc cells, two days, high dose 10 uM
Compound,Kd (BCL6 BTB domain) [nM],IC50 (Karpas422 cells; [2]) [µM],"EC50 [1, 3] [µM]","IC50 (Karpas422 cells; read-out: Tumor Growth Inhibition in Karpas-422 (IC50), Karpas422 cells, six days, ATPlite) [µM]","EC50 ([1]; read-out: Luciferase-Assay EC50, SuDHL4-3xBCL6-TK-Luc cells, two days, high dose 10 uM) [µM]"
CC(C)[C@H]1CN(c2cc(NC(=O)Cn3cc(-c4cc(Cl)c(O)c(C(N)=O)c4)c4c(=O)n(C)cnc43)c(Cl)cn2)CCO1 [Compound I-204],35.7,0.146,0.251,–,–
CN1CCC2(C1)CN(c1cc(NC(=O)Cn3cc(-c4cc(Cl)c(O)c(C(N)=O)c4)c4c(=O)n(C)cnc43)c(Cl)cn1)CCO2 (stereo not drawn) [Compound I-133],30,0.199,0.137,–,–
Cn1cnc2c(c(-c3cc(C(N)=O)c(O)c(F)c3F)cn2CC(=O)Nc2cc(N3CCOCC3)ncc2F)c1=O [Compound I-404],106,10,4.06,–,–
C[C@H]1CN(Cc2ccccc2)CCN1c1cc(NC(=O)Cn2cc(-c3cc(C(N)=O)c(O)c(F)c3F)c3c(=O)n(C)cnc32)c(Cl)cn1 [Compound I-314],117,6.7,0.901,–,–
CN1CC2CC1CN2c1cc(NC(=O)Cn2cc(-c3cc(Cl)c(O)c(C(N)=O)c3)c3c(=O)n(C)cnc32)c(Cl)cn1 (stereo not drawn) [Compound I-367],41.9,3.49,5.3,–,–
CN1CCCN(c2cc(NC(=O)Cn3cc(-c4cc(F)c(O)c(C(N)=O)c4)c4c(=O)n(C)cnc43)c(Cl)cn2)CC1 [Compound I-289],16,0.652,1.18,–,–
Cn1cnc2c(c(-c3cc(Cl)c(O)c(C(N)=O)c3)cn2CC(=O)Nc2cc(N3CC4CC(C3)O4)ncc2Cl)c1=O [Compound I-282],21.3,0.489,0.669,–,–
Cn1cnc2c(c(-c3cc(F)c(O)c(C(N)=O)c3)cn2CC(=O)Nc2cc(N3C4CCC3COC4)ncc2Cl)c1=O [Compound I-436],14.1,0.401,0.803,–,–
COc1c(O)c(C(N)=O)cc(-c2cn(CC(=O)Nc3cc(N4CCOC[C@@H]4C)nc(F)c3Cl)c3ncn(C)c(=O)c23)c1F [Compound I-411],46.2,1.12,0.771,–,–
COc1cc(-c2cn(CC(=O)Nc3cc(N4CCOC[C@@H]4C)ncc3Cl)c3ncn(C)c(=O)c23)cc(C(N)=O)c1O [Compound I-153],4.14,0.176,0.313,–,–
C[C@H]1COCCN1c1cc(NC(=O)Cn2cc(-c3cc(Cl)c(O)c(C(N)=O)c3)c3c(=O)n(C)c(Cl)nc32)c(Cl)cn1 [Compound I-262],22.8,0.389,0.468,–,–
CN1CCOC2CN(c3cc(NC(=O)Cn4cc(-c5cc(Cl)c(O)c(C(N)=O)c5)c5c(=O)n(C)cnc54)c(Cl)cn3)CC21 (stereo not drawn) [Compound I-329],13.4,0.173,0.345,–,–
CN1CCN(c2cc(NC(=O)Cn3cc(-c4cc(C(N)=O)c(O)c(F)c4F)c4c(=O)n(C)cnc43)c(Cl)cn2)CC1 [Compound I-231],89.9,1.18,1.47,–,–
"C[C@H]1CN(C)CCN1c1cc(NC(=O)Cn2cc(-c3cc(F)c(O)c(C(N)=O)c3)c3c(=O)n(CC#Cc4cnn(C)c4)cnc32)c(Cl)c(F)n1 [Compound I-432, (S)-5-(7-(2-((3-chloro-6-(2,4-dimethylpiperazin-1-yl)-2-fluoropyridin-4-yl)amino)-2-oxoethyl)-3-(3-(1-methyl-1H-pyrazol-4-yl)prop-2-yn-1-yl)-4-oxo-4,7-dihydro-3H-pyrrolo[2,3-d]pyrimidin-5-yl)-3-fluoro-2-hydroxybenzamide]",2.39,0.0181,0.0347,–,–
CCN1CCN(c2cc(NC(=O)Cn3cc(-c4cc(Cl)c(O)c(C(N)=O)c4)c4c(=O)n(C)cnc43)c(Cl)cn2)[C@@H](C)C1 [Compound I-331],17.8,0.176,0.254,–,–
"C[C@H]1CN(CCO)CCN1c1cc(NC(=O)Cn2cc(-c3cc(C(N)=O)c(O)c(F)c3F)c3c(=O)n(C)cnc32)c(Cl)cn1 [Compound I-452, (S)-5-(7-(2-((5-chloro-2-(4-(2-hydroxyethyl)-2-methylpiperazin-1-yl)pyridin-4-yl)amino)-2-oxoethyl)-3-methyl-4-oxo-4,7-dihydro-3H-pyrrolo[2,3-d]pyrimidin-5-yl)-3,4-difluoro-2-hydroxybenzamide]",13.6,1.52,2.6,–,–
Cn1cnc2c(c(-c3cc(F)c(O)c(C(N)=O)c3)cn2CC(=O)Nc2cc(N3CC4COCC4C3)ncc2Cl)c1=O (stereo not drawn) [Compound I-275],4.76,0.137,0.209,–,–
Cn1cnc2c(c(-c3cc(Cl)c(O)c(C(N)=O)c3)cn2CC(=O)Nc2cc(N3CCOCC3)nc(F)c2Cl)c1=O [Compound I-200],17.9,0.133,0.158,–,–
C[C@H]1CN(C)CCN1c1cc(NC(=O)Cn2cc(-c3cc(C(N)=O)c(O)c(F)c3F)c3c(=O)n(CC#Cc4cnn(C)c4)cnc32)c(Cl)cn1 [Compound I-304],6.56,0.314,0.228,–,–
CN1CC2CCC(C1)N2c1cc(NC(=O)Cn2cc(-c3cc(Cl)c(O)c(C(N)=O)c3)c3c(=O)n(C)cnc32)c(Cl)cn1 [Compound I-348],13.4,0.15,0.479,–,–

Compound,Kd (BCL6 BTB domain) [nM],IC50 (Karpas422 cells; [2]) [µM],"EC50 [1, 3] [µM]","IC50 (Karpas422 cells; read-out: Tumor Growth Inhibition in Karpas-422 (IC50), Karpas422 cells, six days, ATPlite) [µM]","EC50 ([1]; read-out: Luciferase-Assay EC50, SuDHL4-3xBCL6-TK-Luc cells, two days, high dose 10 uM) [µM]"
C[C@H]1CNCCN1c1cc(NC(=O)Cn2cc(-c3cc(C(N)=O)c(O)c(F)c3F)c3c(=O)n(C)cnc32)c(Cl)cn1 [Compound I-335],24.6,5.1,6.92,–,–
CN1CCOC2(CCN(c3cc(NC(=O)Cn4cc(-c5cc(C(N)=O)c(O)cc5F)c5c(=O)n(C)cnc54)c(Cl)cn3)C2)C1 (stereo not drawn) [Compound I-184],37.4,0.26,0.348,–,–
C[C@@H](C1CC1)N1CCN(c2cc(NC(=O)Cn3cc(-c4cc(C(N)=O)c(O)c(F)c4F)c4c(=O)n(C)cnc43)c(Cl)c(F)n2)[C@@H](C)C1 [Compound I-454],13.5,0.244,0.306,–,–
CO[C@@H]1CN(c2cc(NC(=O)Cn3cc(-c4cc(C(N)=O)c(O)c(F)c4F)c4c(=O)n(C)cnc43)c(Cl)c(F)n2)C[C@@H]1F [Compound I-442],21.8,0.266,0.386,–,–
Cn1c(NCCC(F)(F)F)nc2c(c(-c3cc(Cl)c(O)c(C(N)=O)c3)cn2CC(=O)Nc2cc(N3CCOCC3)ncc2Cl)c1=O [Compound I-134],97,0.57,0.477,–,–
C[C@@H]1CN(c2cc(NC(=O)Cn3cc(-c4cc(C(N)=O)c(O)c(Cl)c4F)c4c(=O)n(C)cnc43)c(Cl)cn2)C[C@H](C)O1 [Compound I-192],757,–,–,1.24,3.98
Cc1c(O)c(C(N)=O)cc(-c2cn(CC(=O)Nc3cc(N4C[C@@H](C)O[C@@H](C)C4)ncc3Cl)c3ncn(C)c(=O)c23)c1F [Compound I-119],4000,> 10,> 10,–,–
Cn1cnc2c(c(-c3cc(F)c(O)c(C(N)=O)c3)cn2CC(=O)Nc2cc(N3CCOCC3)ncc2F)c1=O [Compound I-217],26.6,0.382,0.727,–,–
C[C@H]1CN(C2COC2)CCN1c1cc(NC(=O)Cn2cc(-c3cc(Cl)c(O)c(C(N)=O)c3)c3c(=O)n(C)c(C(F)(F)F)nc32)c(Cl)cn1 [Compound I-371],39.5,0.288,0.141,–,–
CC1CN(C)CC(C)N1c1cc(NC(=O)Cn2cc(-c3cc(Cl)c(O)c(C(N)=O)c3)c3c(=O)n(C)cnc32)c(Cl)cn1 (stereo not drawn) [Compound I-340],11.6,0.0759,0.0724,–,–
Cc1nc2c(c(-c3cc(F)c(O)c(C(N)=O)c3)cn2CC(=O)Nc2cc(N3CC4CCC(C3)O4)ncc2Cl)c(=O)n1C [Compound I-199],8.18,0.0909,0.117,–,–
COCn1c(Cl)nc2c(c(-c3cc(Cl)c(O)c(C(N)=O)c3)cn2CC(=O)Nc2cc(N3CCN(C)C[C@@H]3C)ncc2Cl)c1=O [Compound I-323],100,0.914,1.09,–,–
CO[C@H]1CN(c2cc(NC(=O)Cn3cc(-c4cc(Cl)c(O)c(C(N)=O)c4)c4c(=O)n(C)c(C(F)(F)F)nc43)c(Cl)cn2)C[C@H]1F [Compound I-387],189,1.04,1.12,–,–
Cn1cnc2c(c(-c3cc(C(N)=O)c(O)c(F)c3F)cn2CC(=O)Nc2cc(N3CC4CC3CN4CC(F)(F)F)ncc2Cl)c1=O (stereo not drawn) [Compound I-363],59.3,1.19,0.931,–,–
Cn1cnc2c(c(-c3cc(Cl)c(O)c(C(N)=O)c3)cn2CC(=O)Nc2cc(N3CCN4CCOCC4C3)ncc2Cl)c1=O (stereo not drawn) [Compound I-75],8,0.099,0.132,–,–
Cn1cnc2c(c(-c3cc(F)c(O)c(C(N)=O)c3)cn2CC(=O)Nc2cc(N3CC4CCC(C3)O4)ncc2Cl)c1=O [Compound I-176],6.06,0.137,0.239,–,–
Cc1nc2c(c(-c3cc(Cl)c(O)c(C(N)=O)c3)cn2CC(=O)Nc2cc(N3CCN(C)C[C@@H]3C)nc(F)c2Cl)c(=O)n1C [Compound I-373],5.96,0.105,0.0803,–,–
C[C@@H](CO)Nc1cc(NC(=O)Cn2cc(-c3cc(Cl)c(O)c(C(N)=O)c3)c3c(=O)n(C)cnc32)c(Cl)cn1 [Compound I-198],21.7,3.02,5.82,–,–
Cn1cnc2c(c(-c3cc(Cl)c(O)c(C(N)=O)c3)cn2CC(=O)Nc2cc(N3CC4CCC3C4)ncc2Cl)c1=O (stereo not drawn) [Compound I-126],39,0.268,2.85,–,–
